Tests used:
barnyardgrass = test: Test C flood test plant response rating 0 to 100; type: in vivo, Echinochloa crus-galli; conditions: for Plant response rating (0 to 100), Barnyardgrass: under POSTEMERGENCE head (flood test species); for Plant response rating, Barnyardgrass: flood test species listed under POSTEMERGENCE, 0 to 100 scale
Text: (§1) The compounds evaluated in this test were formulated in a non-phytoxic solvent and applied to the soil surface before plant seedlings emerged (preemergence application), to water that covered the soil surface (flood application), and to plants that were in the one-to-four leaf stage (postemergence application). A sandy loam soil was used for the preemergence and postemergence tests, while a silt loam soil was used in the flood test. Water depth was approximately 2.5 cm for the flood test and was maintained at this level for the duration of the test. Plant species in the preemergence and postemergence tests consisted of barley (Hordeum vulgare), bedstraw (Galium aparine), blackgrass (Alopecurus myosuroides), chickweed (Stellaria media), corn (Zea mays), cotton (Gossypium hirsutum), crabgrass (Digitaria sanguinalis), downy brome (Bromus tectorum), giant foxtail (Setaria faberii), lambsquarters (Chenopodium album), morningglory (Ipomoea hederacea), pigweed ([…]), rape (Brassica napus), ryegrass (Lolium multiflorum), sorghum (Sorghum bicolor), soybean (Glycine max), speedwell (Veronica persica), sugar beet (Beta vulgaris), velvetleaf (Abutilon theophrasti), wheat (Triticum aestivum), wild buckwheat (Polygonum convolvulus), and wild oat (Avena fatua). All plant species were planted one day before application of the compound for the preemergence portion-of this test. Plantings of these species were adjusted to produce plants of appropriate size for the post-emergence portion of the test. […] All plant species were grown using normal greenhouse practices. Visual evaluations of injury expressed on treated plants, when compared to untreated controls, were recorded approximately fourteen to twenty one days after application of the test compound. […] A dash (-) response means no test result.

barley = test: Test B preemergence/postemergence greenhouse plant response rating 0 to 10; type: in vivo, Hordeum vulgare; conditions: for Plant response rating, Barley: 0 to 10 scale
Procedure, shortened: (§2)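 Both application timings were run together: seeds got compound preemergence, and established seedlings (two to eighteen cm) got it postemergence. Non-phytotoxic solvent carried the chemical. Ratings are visual, versus controls, at twelve to sixteen days.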

bedstraw = test: as above; type: in vivo, Galium aparine; conditions: for Plant response rating, Bedstraw: 0 to 10 scale
Procedure, shortened: as §2

wild oat [1] = test: Test C preemergence/postemergence greenhouse plant response rating 0 to 100; type: in vivo, Avena fatua; conditions: for Plant response rating, Wild oat: 0 to 100 scale
Text: as §1

cotton = test: Test B preemergence/postemergence greenhouse plant response rating 0 to 10; type: in vivo, Gossypium hirsutum; conditions: for Plant response rating, Cotton: 0 to 10 scale
Procedure, shortened: as §2

rape = test: Test C preemergence/postemergence greenhouse plant response rating 0 to 100; type: in vivo, Brassica napus; conditions: for Plant response rating, Rape: 0 to 100 scale
Text: as §1

wheat [2] = test: Test B preemergence/postemergence greenhouse plant response rating 0 to 10; type: in vivo, Triticum aestivum; conditions: 0 to 10 scale
Procedure, shortened: as §2

wheat [3] = test: Test C preemergence/postemergence greenhouse plant response rating 0 to 100; type: in vivo, Triticum aestivum; conditions: for Plant response rating, Wheat: 0 to 100 scale
Text: as §1

ryegrass = test: as above; type: in vivo, Lolium multiflorum; conditions: for Plant response rating Ryegrass: 0 to 100 scale
Text: as §1

wild buckwheat = test: as above; type: in vivo, Polygonum convolvulus; conditions: for Plant response rating, Wild buckwheat: 0 to 100 scale
Text: as §1

sugar beet = test: Test B preemergence/postemergence greenhouse plant response rating 0 to 10; type: in vivo, Beta vulgaris; conditions: 0 to 10 scale
Procedure, shortened: as §2

sorghum [4] = test: Test C preemergence/postemergence greenhouse plant response rating 0 to 100; type: in vivo, Sorghum bicolor; conditions: for Plant response rating, Sorghum: 0 to 100 scale
Text: as §1

downy brome = test: as above; type: in vivo, Bromus tectorum; conditions: for Plant response rating Downy Brome: 0 to 100 scale
Text: as §1

crabgrass = test: as above; type: in vivo, Digitaria sanguinalis; conditions: for Plant response rating, Crabgrass: 0 to 100 scale
Text: as §1

sorghum [5] = test: Test B preemergence/postemergence greenhouse plant response rating 0 to 10; type: in vivo, Sorghum bicolor; conditions: 0 to 10 scale
Procedure, shortened: as §2

lambsquarters = test: as above; type: in vivo, Chenopodium album; conditions: 0 to 10 scale
Procedure, shortened: as §2

blackgrass = test: as above; type: in vivo, Alopecurus myosuroides; conditions: for Plant response rating, Blackgrass: 0 to 10 scale
Procedure, shortened: as §2

wild oat [6] = test: as above; type: in vivo, Avena fatua; conditions: 0 to 10 scale
Procedure, shortened: as §2

C#CCOc1cc(-c2nn3c(c2Br)CCCC3)c(F)cc1Cl [Compound 26]
Plant response rating (0 to 100), Barnyardgrass (barnyardgrass; Rate 4 g/ha): 100 | Plant response rating (0 to 100), Barnyardgrass (barnyardgrass; Rate 16 g/ha): 100 | Plant response rating, Barnyardgrass (barnyardgrass; 62 g/ha): 100 | Plant response rating, Barnyardgrass (barnyardgrass; 250 g/ha): 100 | Plant response rating (0 to 10 scale), Barley (barley; POSTEMERGENCE, Rate 50 g/ha): 4 | Plant response rating, Barley (barley; POSTEMERGENCE, Rate 200 g/ha): 6 | Plant response rating, Barley (barley; PREEMERGENCE, Rate 50 g/ha): 0 | Plant response rating, Barley (barley; Rate 200 g/ha, PREEMERGENCE): 1 | Plant response rating (0 to 10 scale), Bedstraw (bedstraw; POSTEMERGENCE, Rate 50 g/ha): 9 | Plant response rating, Bedstraw (bedstraw; POSTEMERGENCE, Rate 200 g/ha): 9 | Plant response rating, Bedstraw (bedstraw; PREEMERGENCE, Rate 50 g/ha): 10 | Plant response rating, Bedstraw (bedstraw; Rate 200 g/ha, PREEMERGENCE): 10 | Plant response rating, Wild oat (wild oat [1]; POSTEMERGENCE, 62 g/ha): 30 | Plant response rating, Wild oat (wild oat [1]; POSTEMERGENCE, 250 g/ha): 50 | Plant response rating (0 to 100), Wild oat (wild oat [1]; POSTEMERGENCE, Rate 4 g/ha): 20 | Plant response rating, Wild oat (wild oat [1]; PREEMERGENCE, 250 g/ha): 30 | Plant response rating (0 to 100), Wild oat (wild oat [1]; PREEMERGENCE, Rate 4 g/ha): 0 | Plant response rating (0 to 100), Wild oat (wild oat [1]; Rate 16 g/ha, POSTEMERGENCE): 30 | Plant response rating (0 to 100), Wild oat (wild oat [1]; Rate 16 g/ha, PREEMERGENCE): 0 | Plant response rating (0 to 10 scale), Cotton (cotton; POSTEMERGENCE, Rate 50 g/ha): 10 | Plant response rating, Cotton (cotton; POSTEMERGENCE, Rate 200 g/ha): 10 | Plant response rating, Cotton (cotton; PREEMERGENCE, Rate 50 g/ha): 3 | Plant response rating, Cotton (cotton; Rate 200 g/ha, PREEMERGENCE): 9 | Plant response rating, Rape (rape; POSTEMERGENCE, 62 g/ha): 100 | Plant response rating, Rape (rape; POSTEMERGENCE, 250 g/ha): 100 | Plant response rating (0 to 100), Rape (rape; POSTEMERGENCE, Rate 4 g/ha): 80 | Plant response rating, Rape (rape; PREEMERGENCE, 62 g/ha): 20 | Plant response rating, Rape (rape; PREEMERGENCE, 250 g/ha): 30 | Plant response rating (0 to 100), Rape (rape; PREEMERGENCE, Rate 4 g/ha): 0 | Plant response rating (0 to 100), Rape (rape; Rate 16 g/ha, POSTEMERGENCE): 90 | Plant response rating (0 to 100), Rape (rape; Rate 16 g/ha, PREEMERGENCE): 0 | Plant response rating, Wheat (wheat [2]; POSTEMERGENCE, Rate 50 g/ha): 4 | Plant response rating, Wheat (wheat [2]; POSTEMERGENCE, Rate 200 g/ha): 5 | Plant response rating, Wheat (wheat [2]; PREEMERGENCE, Rate 50 g/ha): 1 | Plant response rating, Wheat (wheat [2]; Rate 200 g/ha, PREEMERGENCE): 2 | Plant response rating, Wheat (wheat [3]; POSTEMERGENCE, 62 g/ha): 40 | Plant response rating, Wheat (wheat [3]; POSTEMERGENCE, 250 g/ha): 60 | Plant response rating (0 to 100), Wheat (wheat [3]; POSTEMERGENCE, Rate 4 g/ha): 20 | Plant response rating, Wheat (wheat [3]; PREEMERGENCE, 250 g/ha): 10 | Plant response rating (0 to 100), Wheat (wheat [3]; PREEMERGENCE, Rate 4 g/ha): 0 | Plant response rating (0 to 100), Wheat (wheat [3]; Rate 16 g/ha, POSTEMERGENCE): 20 | Plant response rating (0 to 100), Wheat (wheat [3]; Rate 16 g/ha, PREEMERGENCE): 0 | Plant response rating Ryegrass (ryegrass; POSTEMERGENCE, 62 g/ha): 30 | Plant response rating Ryegrass (ryegrass; POSTEMERGENCE, 250 g/ha): 50 | Plant response rating (0 to 100), Ryegrass (ryegrass; POSTEMERGENCE, Rate 4 g/ha): 20 | Plant response rating Ryegrass (ryegrass; PREEMERGENCE, 62 g/ha): 0 | Plant response rating Ryegrass (ryegrass; PREEMERGENCE, 250 g/ha): 20 | Plant response rating (0 to 100), Ryegrass (ryegrass; PREEMERGENCE, Rate 4 g/ha): 0 | Plant response rating (0 to 100), Ryegrass (ryegrass; Rate 16 g/ha, POSTEMERGENCE): 20 | Plant response rating (0 to 100), Ryegrass (ryegrass; Rate 16 g/ha, PREEMERGENCE): 0 | Plant response rating, Wild buckwheat (wild buckwheat; POSTEMERGENCE, 62 g/ha): 100 | Plant response rating, Wild buckwheat (wild buckwheat; POSTEMERGENCE, 250 g/ha): 100 | Plant response rating (0 to 100), Wild buckwheat (wild buckwheat; POSTEMERGENCE, Rate 4 g/ha): 50 | Plant response rating, Wild buckwheat (wild buckwheat; PREEMERGENCE, 250 g/ha): 100 | Plant response rating (0 to 100), Wild buckwheat (wild buckwheat; PREEMERGENCE, Rate 4 g/ha): 20 | Plant response rating (0 to 100), Wild buckwheat (wild buckwheat; Rate 16 g/ha, POSTEMERGENCE): 80 | Plant response rating (0 to 100), Wild buckwheat (wild buckwheat; Rate 16 g/ha, PREEMERGENCE): 80 | Plant response rating, Sugar beet (sugar beet; POSTEMERGENCE, Rate 50 g/ha): 10 | Plant response rating, Sugar beet (sugar beet; POSTEMERGENCE, Rate 200 g/ha): 10 | Plant response rating, Sugar beet (sugar beet; PREEMERGENCE, Rate 50 g/ha): 9 | Plant response rating, Sugar beet (sugar beet; Rate 200 g/ha, PREEMERGENCE): 10 | Plant response rating, Sorghum (sorghum [4]; POSTEMERGENCE, 62 g/ha): 50 | Plant response rating, Sorghum (sorghum [4]; POSTEMERGENCE, 250 g/ha): 50 | Plant response rating (0 to 100), Sorghum (sorghum [4]; POSTEMERGENCE, Rate 4 g/ha): 20 | Plant response rating, Sorghum (sorghum [4]; PREEMERGENCE, 250 g/ha): 50 | Plant response rating (0 to 100), Sorghum (sorghum [4]; PREEMERGENCE, Rate 4 g/ha): 0 | Plant response rating (0 to 100), Sorghum (sorghum [4]; Rate 16 g/ha, POSTEMERGENCE): 30 | Plant response rating (0 to 100), Sorghum (sorghum [4]; Rate 16 g/ha, PREEMERGENCE): 20 | Plant response rating Downy Brome (downy brome; POSTEMERGENCE, 62 g/ha): 50 | Plant response rating Downy Brome (downy brome; POSTEMERGENCE, 250 g/ha): 70 | Plant response rating (0 to 100), Downy Brome (downy brome; POSTEMERGENCE, Rate 4 g/ha): 20 | Plant response rating Downy Brome (downy brome; PREEMERGENCE, 62 g/ha): 0 | Plant response rating Downy Brome (downy brome; PREEMERGENCE, 250 g/ha): 20 | Plant response rating (0 to 100), Downy Brome (downy brome; PREEMERGENCE, Rate 4 g/ha): 0 | Plant response rating (0 to 100), Downy Brome (downy brome; Rate 16 g/ha, POSTEMERGENCE): 40 | Plant response rating (0 to 100), Downy Brome (downy brome; Rate 16 g/ha, PREEMERGENCE): 0 | Plant response rating, Crabgrass (crabgrass; POSTEMERGENCE, 62 g/ha): 20 | Plant response rating, Crabgrass (crabgrass; POSTEMERGENCE, 250 g/ha): 40 | Plant response rating (0 to 100), Crabgrass (crabgrass; POSTEMERGENCE, Rate 4 g/ha): 0 | Plant response rating, Crabgrass (crabgrass; PREEMERGENCE, 62 g/ha): 20 | Plant response rating, Crabgrass (crabgrass; PREEMERGENCE, 250 g/ha): 60 | Plant response rating (0 to 100), Crabgrass (crabgrass; PREEMERGENCE, Rate 4 g/ha): 0 | Plant response rating (0 to 100), Crabgrass (crabgrass; Rate 16 g/ha, POSTEMERGENCE): 0 | Plant response rating (0 to 100), Crabgrass (crabgrass; Rate 16 g/ha, PREEMERGENCE): 0 | Plant response rating, Sorghum (sorghum [5]; POSTEMERGENCE, Rate 50 g/ha): 5 | Plant response rating, Sorghum (sorghum [5]; POSTEMERGENCE, Rate 200 g/ha): 6 | Plant response rating, Sorghum (sorghum [5]; PREEMERGENCE, Rate 50 g/ha): 2 | Plant response rating, Sorghum (sorghum [5]; Rate 200 g/ha, PREEMERGENCE): 4 | Plant response rating, Lambsquarter (lambsquarters; POSTEMERGENCE, Rate 50 g/ha): 10 | Plant response rating, Lambsquarter (lambsquarters; POSTEMERGENCE, Rate 200 g/ha): 10 | Plant response rating, Lambsquarter (lambsquarters; PREEMERGENCE, Rate 50 g/ha): 10 | Plant response rating, Lambsquarter (lambsquarters; Rate 200 g/ha, PREEMERGENCE): 10 | Plant response rating (0 to 10 scale), Blackgrass (blackgrass; POSTEMERGENCE, Rate 50 g/ha): 4 | Plant response rating, Blackgrass (blackgrass; POSTEMERGENCE, Rate 200 g/ha): 5 | Plant response rating, Blackgrass (blackgrass; PREEMERGENCE, Rate 50 g/ha): 4 | Plant response rating, Blackgrass (blackgrass; Rate 200 g/ha, PREEMERGENCE): 6 | Plant response rating, Wild oat (wild oat [6]; POSTEMERGENCE, Rate 50 g/ha): 5 | Plant response rating, Wild oat (wild oat [6]; POSTEMERGENCE, Rate 200 g/ha): 7 | Plant response rating, Wild oat (wild oat [6]; Rate 200 g/ha, PREEMERGENCE): 6

— US6358885B1, “Substituted phenylheterocyclic herbicides” (Mississippi State University, priority 1992, dated 2002)
